Measurements: ChEMBL document CHEMBL1130784, “Irreversible inhibition of zinc-containing protease by oxazolidinone derivatives. Novel inactivation chemistry” (Bioorg Med Chem Lett, 1998)

How the values were obtained:
[1] = biological target: T1, Carboxypeptidase A1 (Homo sapiens) (UniProt P15085); experiment: Inactivation potency of compound against carboxypeptidase A (CPA)
T1 sequence (whole entry): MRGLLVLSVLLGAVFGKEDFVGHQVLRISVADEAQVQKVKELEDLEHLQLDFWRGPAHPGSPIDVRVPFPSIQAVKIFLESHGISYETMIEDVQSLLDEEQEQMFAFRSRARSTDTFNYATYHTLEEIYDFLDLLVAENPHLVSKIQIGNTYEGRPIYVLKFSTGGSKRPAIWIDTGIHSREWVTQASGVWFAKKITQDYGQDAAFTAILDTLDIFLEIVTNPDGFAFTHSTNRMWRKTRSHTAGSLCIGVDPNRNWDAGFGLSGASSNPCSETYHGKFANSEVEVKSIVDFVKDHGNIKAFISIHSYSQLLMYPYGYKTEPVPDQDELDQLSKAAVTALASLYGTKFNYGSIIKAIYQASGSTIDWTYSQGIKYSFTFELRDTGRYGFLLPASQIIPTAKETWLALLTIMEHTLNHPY

[2] = Kinetic constant against carboxypeptidase A (CPA)
[3] = Inhibitory activity of against carboxypeptidase A (CPA)
[4] = Partition ratio (Kcat/Kinact) was calculated

| Structure (SMILES) | K inact/Ki [1] | K inact [2] | Ki [3] | Ratio [4] |
| --- | --- | --- | --- | --- |
| O=C1N[C@H]([C@H](Cc2ccccc2)C(=O)O)CO1 | 1.39 M⁻¹ s⁻¹ | 0.075 min⁻¹ | 0.9 mM | 120 |
| O=C1N[C@@H]([C@@H](Cc2ccccc2)C(=O)O)CO1 | 1.52 M⁻¹ s⁻¹ | 0.115 min⁻¹ | 1.65 mM | 94 |
